These results are taken from patent publication US11497740B2, “Use of Jumonji C demethylase inhibitors for the treatment and prevention of chemotherapy resistance and radioresistance in cancer” (THE BOARD OF REGENTS OF THE UNIVERSITY OF TEXAS SYSTEM, priority 2016, dated 2022).

Series [1] has as its system H1299 Parental xenografts. The conditions noted are these: for final tumor burden (tumor weights) of combination / tumor growth inhibition of combination: combination with paclitaxel+carboplatin chemotherapy. How it is done:
(§1) Animals were housed under standard, sterile conditions at UTSW animal facility. All experiments were carried out under approved IACUC protocols and followed UTSW animal care procedures. For tumor growth rate studies and docetaxel+cisplatin drug response comparisons, 6-8 week old female NOD/SCID mice were used. For all subsequent in vivo drug response studies, 6 week old female athymic nude mice were used (Charles River Labs, Jackson Labs). Experimental details are provided in supplemental information.
(§2) Parental and resistant NSCLC cell lines (1×10^6 cells in PBS or RPMI for H1299; 5×10^6 cells in PBS/matrigel for H1355 and HCC4017) were injected subcutaneously into the right flank of mice. Tumor growth was monitored by caliper measurements and tumor volume was calculated by 0.5×length×width^2). Treatment was started when tumors reached ˜150-200 mm3. Drug/Vehicle therapy was given to tumor volume matched pairs. Docetaxel (3 mg/kg) and cisplatin (3 mg/kg) were given i.p. once a week for 3 weeks. For JIB-04 studies, nude mice were randomized to receive either of 5, 20 or 50 mg/kg doses or vehicle, 3× per week for 2 weeks by gavage in 12.5% cremophor EL, 12.5% DMSO, aqueous suspension.

Another series has as its system H1299 T18 xenografts. To be noted: for final tumor weights vs vehicle: GSK-J4 100 mg/kg 10 days, JIB-04 50 mg/kg; for tumor volume vs vehicle: GSK-J4 100 mg/kg every day 10 days, JIB-04 5, 20 or 50 mg/kg 3x per week 2 weeks by gavage. How it is done: as §1, §2
The next series relates to H1355 T16 xenografts. The conditions noted are these: for toxicity in treated mice: mouse, in vivo. How it is done: as §1
Parental and resistant NSCLC cell lines (1×10^6 cells in PBS or RPMI for H1299; 5×10^6 cells in PBS/matrigel for H1355 and HCC4017) were injected subcutaneously into the right flank of mice. Tumor growth was monitored by caliper measurements and tumor volume was calculated by 0.5×length×width^2). Treatment was started when tumors reached ˜150-200 mm3. Drug/Vehicle therapy was given to tumor volume matched pairs. Docetaxel (3 mg/kg) and cisplatin (3 mg/kg) were given i.p. once a week for 3 weeks. […]

The subject of series [2] is H3K9me3 demethylase activity. Nature of the series: Histone demethylase activity in tumor lysates by ELISA (H3K9me3). The conditions noted are these: H1299 T18 xenografts, drug-treated vs vehicle. The class given is in vivo. From the text:
(§3) To evaluate whether the targeted KDM enzymatic activity was reduced in the JmjC inhibitor-treated tumors in vivo, the inventors measured histone demethylase activity in drug-treated and vehicle-control tumor lysates by ELISA. […] Altogether, the results confirmed reduction of the targeted KDM enzymatic activity with cytostatic/cytotoxic effects in JmjC inhibitor-treated chemoresistant xenografts.

The test system of series [3] is H3K27me3 demethylase activity. Nature of the series: Histone demethylase activity in tumor lysates by ELISA (H3K27me3). The class given is in vivo. To be noted: H1299 T18 xenografts, drug-treated vs vehicle.
Excerpt: as §3

Another series has as its system H1299 Parental cells. Description: Microarray gene expression after 24 h treatment, H1299 Parental cells. The class given is cell-based, human. The conditions noted are these: 0.2 μM JIB-04 or 1 μM GSK-J4, fold changes ≥1.5, P ≤0.05. As for the experimental part: Gene expression profiling was performed using Illumina HumanWG-6 V3 BeadArrays (for NSCLC patient tumors) or Illumina HumanHT-12 V4 BeadArrays (for cell lines and xenografts). Cell line and xenograft microarrays included biological replicates (Cell lines: 5 for parental, 3 for most resistant variant, 2 for each intermediate resistance time-point; Xenografts: 3 tumors each for parental and resistant group). Data were pre-processed using the R package mbcb for background correction (Ding et al., 2008), then log-transformed and quantile-normalized with the R package preprocessCore or using in-house MATRIX software (MicroArrayTRansformation In eXcel). Microarray data can be found under GEO accession GSE77209.
Log ratios, unpaired t-test p values and color-coded heat maps were obtained using MATRIX. For comparisons involving progressively resistant cell line series, analyses were performed using R package by fitting linear regression model on gene expression data against the log transformed IC50 values as measures of drug response. We fitted beta-uniform mixture model to a set of p-values using the R package ClassComparison. Genes with p-values below the FDR cutoff of 0.1 were considered statistically significant. For xenograft data, differential gene expression analysis was performed by student's t-test. […]

In the next series the test system is H1299. Description: Clonogenic survival with ionizing radiation, H1299. The conditions noted are these: 16 nM JIB-04; for radiosensitization (clonogenic survival): drug 4 h before IR, 175 nM GSK-J4. In kind it is cell-based, Human. As for the experimental part:
(§4) Cells were serially diluted to appropriate concentrations and plated into 60-mm dish in triplicate for 4 h. Then cells were treated with the indicated drugs, and irradiated 4 hours later with graded doses of radiation for concurrent treatment or irradiated and 4 hours later the drugs added for post-treatment. All cells were irradiated at room temperature in ambient air using a 137Cs source (Mark 1-68 irradiator, JL Shepherd & Associated). Surviving colonies were stained with crystal violet approximately 10 to 14 days later and colonies formed with more than 50 cells were counted. Clonogenic fraction of irradiated cells was normalized to the plating efficiency of unirradiated controls. The data are presented as the mean±SD. The curve S=e^−(αD+βD2) was fitted to the experimental data using a least square fit algorithm using the program Sigma Plot 11.0 (Systat Software, Inc.).

In the next series the test system is A549. Description: Clonogenic survival with ionizing radiation, A549. The class given is cell-based, Human. The conditions noted are these: 25 nM JIB-04; for radiosensitization (clonogenic survival): drug 4 h before IR. As for the experimental part: as §4
[4] abbreviates: from non-linear regression/exponential growth curves.

Regarding `CCOC(=O)CCNc1cc(N2CCc3ccccc3CC2)nc(-c2ccccn2)n1` [GSK-J4], the “final tumor weights vs vehicle” value in series [1] (GSK-J4 100 mg/kg 10 days) is reported as “no significant drug-induced decrease”. Besides, in series [1], the “final tumor burden (tumor weights) of combination” value was “significant reduction in final tumor burden compared to either therapy alone” and the “tumor growth inhibition of combination” value is “significantly greater tumor growth inhibition than single agents”. In the series with H1299 T18 xenografts, the “final tumor weights vs vehicle” value is reported as “significant decrease in final tumor weights” and the “tumor volume vs vehicle” value is reported as “significant reduction in average tumor volume”. Moreover, in the series on H1299 T18 xenografts (mouse, in vivo), the “% γH2AX+ cells in tumors (IHC)” value was “increased the % γH2AX+ cells” and the “cleaved caspase 3 staining in tumors (IHC)” value was “focally increased cleaved caspase 3 staining”. In the series on H1355 T16 xenografts, the “toxicity in treated mice” value was “No appreciable toxicity”. In addition, in series [2], the “H3K9me3 demethylase activity in tumor lysates” value was “without reducing H3K4me3 or H3K9me3 demethylase activity”. Further, the “H3K27me3 demethylase activity in tumor lysates” value in series [3] is given as “significantly inhibited H3K27me3 demethylase activity”. In the series with H1299 Parental cells, the “gene expression changes (total probes)” value worked out at 224 probes. Further, in the series on H1299, the “radiosensitization (clonogenic survival)” value is “failed to radiosensitize”. The “radiosensitization (clonogenic survival)” value in the series on A549 was “failed to radiosensitize”.

For `Clc1ccc(N/N=C(\c2ccccc2)c2ccccn2)nc1` [JIB-04], the “tumor volume vs vehicle” value in series [1] (GSK-J4 100 mg/kg every day 10 days, JIB-04 5, 20 or 50 mg/kg 3x per week 2 weeks by gavage) is reported as “significantly reduced tumor burden”. In series [1], the “final tumor burden (tumor weights) of combination” value is “significant reduction in final tumor burden compared to either therapy alone” and the “tumor growth inhibition of combination” value was “significantly greater tumor growth inhibition than single agents”. The “change in tumor doubling time” value in series [1] (setting [4]) is reported as less than 25%. For the same compound, in the series on H1299 T18 xenografts, the “final tumor weights vs vehicle” value is listed as “significant decrease in final tumor weights” and the “tumor volume vs vehicle” value is recorded as “greater percent reduction in final tumor volumes”. For the same compound, in the series on H1299 T18 xenografts (setting [4]), the “increase in tumor doubling time” value is on record as 69%. In the series with H1299 T18 xenografts (mouse, in vivo), the “% Ki67+ cells in tumors (IHC)” value is recorded as “reduction of % Ki67+ cells” and the “cleaved caspase 3 staining in tumors (IHC)” value is “focally increased cleaved caspase 3 staining”. For the same compound, the “change in tumor volume relative to treatment start” value in the series on H1355 T16 xenografts (GSK-J4 100 mg/kg i.p. 5x per week, JIB-04 50 mg/kg oral gavage 3x per week, 4 weeks) is recorded as “significant tumor shrinkage”. Besides, the “toxicity in treated mice” value in the series on H1355 T16 xenografts is recorded as “No appreciable toxicity”. Moreover, the “H3K9me3 demethylase activity in tumor lysates” value in series [2] is on record as “significantly inhibited”. The “H3K27me3 demethylase activity in tumor lysates” value in series [3] was “significantly inhibited”. Also, the “gene expression changes (total probes)” value in the series on H1299 Parental cells was 519 probes. In the series on H1299, the “radiosensitization, JIB-04 before IR vs 4 h post-irradiation” value is “significantly more robust when administering JIB-04 first” and the “radiosensitization (clonogenic survival)” value is “had a radiosensitization/radioenhancement effect”. Besides, in the series with A549, the “radiosensitization, JIB-04 before IR vs 4 h post-irradiation” value was “significantly more robust when administering JIB-04 first” and the “radiosensitization (clonogenic survival)” value is reported as “had a radiosensitization/radioenhancement effect”.
